# In patent US20060141044A1, “Pharmaceutical compositions based on diclofenac derivate” (priority 2003, published 2006):
# Assay: Aqueous solubility / Biopharmaceutical Classification System classification
# Type: physicochemical
# Source text: 2-[2-(nitrooxy)ethoxy]ethyl {2-[(2,6-dichlorophenyl)amino]phenyl}acetate is a lipophilic drug with poor aqueous solubility and a low melting point. Said drug can be classified into class 2 according to the Biopharmaceutical Classification System proposed by Amidon et al. (Pharm. Res. 12 (1995) pp. 413420). Compounds of this class are characterised by their low aqueous solubility but reasonably well permeability. A biopharmaceutical problem with these drugs is that their absorption from the gastro-intestinal tract (GIT) may be dissolution rate limited, resulting in poor bioavailibility upon oral administration. One object of the invention is to provide an oral drug delivery composition with satisfactory bioavailability.
smiles,measurement,setting,value
"O=C(Cc1ccccc1Nc1c(Cl)cccc1Cl)OCCOCCO[N+](=O)[O-] [2-[2-(nitrooxy)ethoxy]ethyl {2-[(2,6-dichlorophenyl)amino]phenyl}acetate]",aqueous solubility,qualitative statement,poor
same,class according to the Biopharmaceutical Classification System,system proposed by Amidon et al.,class 2
